Laboratory results reported in PubChem BioAssay (NCI).
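Assay format: 96-well plates, 48-hour exposure. The concentration for 50% growth inhibition is given as GI50. TGI: concentration producing complete growth inhibition.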

Tests used:
Assay in all cases: DTP human tumour cell line panel, 48 h
[1] = test system: UACC-257 melanoma
[2] = test system: SK-OV-3 ovarian
[3] = test system: HCC-2998 colon
[4] = test system: U251 CNS
[5] = test system: CCRF-CEM leukemia
[6] = test system: DU-145 prostate
[7] = test system: SN12C renal
[8] = test system: KM12 colon
[9] = test system: 786-0 renal
[10] = test system: M14 melanoma
[11] = test system: NCI-H522 lung
[12] = test system: SK-MEL-5 melanoma
[13] = test system: HL-60(TB) leukemia
[14] = test system: MDA-MB-435
[15] = test system: TK-10 renal
[16] = test system: SF-295 CNS
[17] = test system: A549 NSCLC
[18] = test system: HOP-92 NSCLC
[19] = test system: RPMI-8226 leukemia
[20] = test system: ACHN renal
[21] = test system: PC-3 prostate
[22] = test system: BT-549 breast
[23] = test system: HS 578T breast
[24] = test system: HCT-116 colon
[25] = test system: SR leukemia
[26] = test system: MCF7 breast
[27] = test system: OVCAR-3 ovarian
[28] = test system: NCI/ADR-RES ovarian
[29] = test system: SW-620 colon
[30] = test system: A498 renal
[31] = test system: UACC-62 melanoma
[32] = test system: MOLT-4 leukemia
[33] = test system: MDA-MB-468 breast
[34] = test system: CAKI-1 renal
[35] = test system: LOX IMVI melanoma
[36] = test system: RXF 393 renal
[37] = test system: HOP-62 NSCLC
[38] = test system: OVCAR-4 ovarian
[39] = test system: OVCAR-5 ovarian
[40] = test system: UO-31 renal
[41] = test system: SK-MEL-2 melanoma
[42] = test system: SNB-19 CNS
[43] = test system: HCT-15 colon
[44] = test system: NCI-H23 lung
[45] = test system: K-562 leukemia
[46] = test system: SNB-75 CNS
[47] = test system: SK-MEL-28 melanoma
[48] = test system: COLO 205 colon
[49] = test system: EKVX NSCLC
[50] = test system: MDA-MB-231 breast
[51] = test system: HT29 colon
[52] = test system: IGROV1 ovarian
[53] = test system: NCI-H226 lung
[54] = test system: MALME-3M melanoma
[55] = test system: NCI-H460 lung
[56] = test system: SF-268 CNS
[57] = test system: OVCAR-8 ovarian
[58] = test system: T-47D breast
[59] = test system: SF-539 CNS

C/C(=N\N=C1/C(=O)Nc2ccc(Cl)cc21)c1ccc2c(c1)Nc1ccccc1S2
GI50 [1]: 4.07 µM
TGI [1]: 18.1 µM
GI50 [2]: 11.9 µM
TGI [2]: 30.7 µM
GI50 [3]: 7.54 µM
TGI [3]: 22.5 µM
GI50 [4]: 5.62 µM
TGI [4]: 18.4 µM
GI50 [5]: 3.42 µM
TGI [5]: 98.5 µM
GI50 [6]: 4.64 µM
TGI [6]: 18 µM
GI50 [7]: 4.47 µM
TGI [7]: 16.8 µM
GI50 [8]: 3.51 µM
TGI [8]: 14.1 µM
GI50 [9]: 2.4 µM
TGI [9]: 5.86 µM
GI50 [10]: 7.35 µM
TGI [10]: 23.3 µM
GI50 [11]: 3.22 µM
TGI [11]: 15.3 µM
GI50 [12]: 3.8 µM
TGI [12]: 14.4 µM
GI50 [13]: 6.21 µM
TGI [13]: > 100 µM
GI50 [14]: 3.27 µM
TGI [14]: 15.5 µM
GI50 [15]: 7.07 µM
TGI [15]: 23.7 µM
GI50 [16]: 4.08 µM
TGI [16]: 17 µM
GI50 [17]: 4.21 µM
TGI [17]: 17.8 µM
GI50 [18]: 2.92 µM
TGI [18]: 11.3 µM
GI50 [19]: 5.86 µM
TGI [19]: 99.6 µM
GI50 [20]: 3.55 µM
TGI [20]: 14.1 µM
GI50 [21]: 3.14 µM
TGI [21]: 16.3 µM
GI50 [22]: 3.47 µM
TGI [22]: 12.3 µM
GI50 [23]: 6.86 µM
TGI [23]: 41.1 µM
GI50 [24]: 4.6 µM
TGI [24]: 19 µM
GI50 [25]: 4.4 µM
TGI [25]: 56.8 µM
GI50 [26]: 3.33 µM
TGI [26]: 13.5 µM
GI50 [27]: 10.2 µM
TGI [27]: 23.4 µM
GI50 [28]: 4.74 µM
TGI [28]: 24.6 µM
GI50 [29]: 5.56 µM
TGI [29]: 20.1 µM
GI50 [30]: 5.89 µM
TGI [30]: 18.7 µM
GI50 [31]: 4.2 µM
TGI [31]: 17.1 µM
GI50 [32]: 2.71 µM
TGI [32]: 8.28 µM
GI50 [33]: 1.8 µM
TGI [33]: 7.31 µM
GI50 [34]: 4.42 µM
TGI [34]: 17.9 µM
GI50 [35]: 5.77 µM
TGI [35]: 18.7 µM
GI50 [36]: 5.05 µM
TGI [36]: 19 µM
GI50 [37]: 12.5 µM
TGI [37]: 27.8 µM
GI50 [38]: 4.67 µM
TGI [38]: 22.5 µM
GI50 [39]: 10.1 µM
TGI [39]: 26.2 µM
GI50 [40]: 4.05 µM
TGI [40]: 19.6 µM
GI50 [41]: 6.77 µM
TGI [41]: 20.8 µM
GI50 [42]: 11.9 µM
TGI [42]: 33.1 µM
GI50 [43]: 6.61 µM
TGI [43]: 24 µM
GI50 [44]: 7.3 µM
TGI [44]: 21.7 µM
GI50 [45]: 4.14 µM
TGI [45]: > 100 µM
GI50 [46]: 4.28 µM
TGI [46]: 19.4 µM
GI50 [47]: 6.23 µM
TGI [47]: 22.8 µM
GI50 [48]: 4.84 µM
TGI [48]: 17.2 µM
GI50 [49]: 4.68 µM
TGI [49]: 22.9 µM
GI50 [50]: 8.23 µM
TGI [50]: 21.9 µM
GI50 [51]: 4.54 µM
TGI [51]: 17.6 µM
GI50 [52]: 5.62 µM
TGI [52]: 23.1 µM
GI50 [53]: 3.49 µM
TGI [53]: 19.7 µM
GI50 [54]: 7.44 µM
TGI [54]: 21.5 µM
GI50 [55]: 3.17 µM
TGI [55]: 10.3 µM
GI50 [56]: 8.19 µM
TGI [56]: 26.5 µM
GI50 [57]: 4.2 µM
TGI [57]: 17.9 µM
GI50 [58]: 2.54 µM
TGI [58]: 12.8 µM
GI50 [59]: 6.83 µM
TGI [59]: 19.8 µM
